In patent US11000537B2, “Composition comprising novel ginsenoside” (AMOREPACIFIC CORPORATION, priority 2018, dated 2021):

Columns and labels:
[1] = system: 3T1-L1 adipocytes; assay: glucose uptake (glucose transport) in differentiated adipocytes; assay type: cell-based; conditions: 10 μM, FIG. 13
Protocol: 3T1-L1 adipocytes (ATCC) were purchased, and 10% bovine calf serum (Hyclone) and 1% penicillin/streptomycin (Sigma) were added to a Dulbecco's Modified Eagle's Medium (Sigma) and cultured in a 5% CO2 culture medium. In order to differentiate preadipocyte cells into adipocytes, a culture plate was filled with cells and cultured for 48 hours. The cells were then replaced in a DMEM medium to which 10% fetal bovine serum (FBS) (Hyclone), 0.5 mM 3-isobutyl-1-methylxanthine (Sigma), 1 μM dexamethasone (Sigma), 5 μg/ml insulin (Sigma), and 1% penicillin/streptomycin were added and cultured for another 48 hours. Thereafter, the cells were further cultured for 14 days while being replaced in a medium containing 10% FBS, 5 μg/ml insulin, and 1% penicillin/streptomycin at two-day intervals to obtain fully differentiated adipocytes. […] As a positive control for measuring glucose uptake in blood, Metformin (Sigma; 10 μM), which is used as a diabetic therapeutic agent, was used, and novel ginsenoside GS #10, which is an example of the present disclosure, isolated from Ginseng seed extract and ginsenosides GS #01-GS #06, which are comparative examples of the present disclosure, were treated with 10 μM each. In addition, both insulin-dependent/independent glucose transport capacity was measured by treating insulin together, which may promote glucose uptake.

[2] = system: α-glucosidase; assay: α-glucosidase enzyme activity inhibition; assay type: biochemical; conditions: Test Example 1, FIG. 12; ginseng seed ginsenosides compared
Protocol: (§1) As a polysaccharide degrading enzyme, pancreatic α-amylase and α-glucosidase were purchased from Sigma, and the enzyme activity of novel ginsenoside GS #10, which is an example of the present disclosure, isolated from Ginseng seed extract and ginsenosides GS #01-GS #06, which are comparative examples of the present disclosure, was measured. In order to measure α-amylase activity, enzyme solution was prepared by dissolving BSA 0.1 g, 0.01 g/L NaN3, α-amylase 0.2857 g in 50 mL of PBS (phosphate buffered saline), and 5 mM of p-nitrophenyl-α-D-maltopentoglycoside was dissolved in another PBS to make a substrate solution. 0.1 mL of the test substance was added to 0.5 mL of the enzyme solution, and then the initial absorbance was measured at 405 nm. After adding 0.5 mL of the substrate solution and reacting it for 5 minutes, the absorbance was measured again. The change in enzyme activity was measured by the difference in absorbance between the two reactions. The method for measuring α-glucosidase activity is the same as the method for measuring α-amylase activity, and differs only in α-glucosidase and substrate (p-nitrophenyl-α-D-glucopyranoside). As a positive control to observe the inhibition of enzyme activity, acarbose, which is an α-amylase inhibitor and α-glucosidase inhibitor derived from wheat seed sold by Sigma, was used.

[3] = system: pancreatic lipase; assay: pancreatic lipase activity inhibition (Pancreatic Lipase Activity Assay Kit); assay type: cell-based; conditions: 10 μM, 1 hour; FIG. 22
Protocol: The hepatocyte cell line HepG2 purchased from the International Center for Biological Resources (ATCC) were placed in Dulbecco's Modified Eagle's Medium (Sigma) to which 10% fetal bovine serum (Hyclone) and 1% penicillin/streptomycin (Sigma) were added, and cultured in a 5% CO2 incubator. As a positive control for the cells, Xenical (Sigma), which are used as pancreatic lipase inhibitors and anti-obesity therapeutic agents, and seven types of ginsenosides (GS #01-GS #06, GS #10; 10 μM each) extracted from Ginseng seed were treated for 1 hour. In addition, Pancreatic Lipase Activity Assay Kit (Abcam) was used to observe the inhibition of each lipase activity.

[4] = system: adipocyte cell 3T3-L1; assay: fat accumulation in adipocytes (Oil-red O staining); assay type: cell-based; conditions: 10 μM during 48 hours of differentiation; FIG. 34
Protocol: The adipocyte cell 3T3-L1 purchased from the International Center for Biological Resources (ATCC) were placed in Dulbecco's Modified Eagle's Medium (Sigma) to which 10% fetal bovine serum (Hyclone) and 1% penicillin/streptomycin (Sigma) were added, and cultured in a 5% CO2 incubator. In order to differentiate preadipocytes into adipocytes, the cells were filled in a culture plate and cultured. After 48 hours, the cells were replaced with Dulbecco's modified eagle medium (DMEM) to which 10% of fetal bovine serum (Hyclone), 0.5 mM of 3-isobutyl-1-methylxanthine (Sigma), 1 μM of dexamethasone (Sigma), 5 μg/ml of insulin (Sigma), 1% of penicillin/streptomycin (Sigma) were added and further cultured for 48 hours. […] As a control to confirm the effect of inhibiting adipocyte differentiation, 20 μM of bisphenol A diglycidyl ether (BADGE) (Sigma), a PPARγ (Peroxisome proliferator-activated receptor gamma) antagonist, was used. Thereafter, the cells were further cultured for 10 days while being replaced with a medium containing 10% FBS and 5 μg/ml insulin and 1% penicillin/streptomycin at two-day intervals to induce adipocyte differentiation.
Differentiated adipocytes treated with each of the seven types of ginsenosides were fixed with formaldehyde solution (Sigma), stained with Oil-red O staining solution (Sigma), and then dissolved with isopropanol (Sigma), and then the amount of the stained fat was quantified by measuring at 490 nm absorbance.

[5] = target: T1, pancreatic α-amylase (Sus scrofa, UniProt P00690); assay: α-amylase enzyme activity inhibition; assay type: biochemical; conditions: Test Example 1, FIG. 11; ginseng seed ginsenosides compared
T1 construct: purchased Sigma
T1 sequence (P00690 16-511): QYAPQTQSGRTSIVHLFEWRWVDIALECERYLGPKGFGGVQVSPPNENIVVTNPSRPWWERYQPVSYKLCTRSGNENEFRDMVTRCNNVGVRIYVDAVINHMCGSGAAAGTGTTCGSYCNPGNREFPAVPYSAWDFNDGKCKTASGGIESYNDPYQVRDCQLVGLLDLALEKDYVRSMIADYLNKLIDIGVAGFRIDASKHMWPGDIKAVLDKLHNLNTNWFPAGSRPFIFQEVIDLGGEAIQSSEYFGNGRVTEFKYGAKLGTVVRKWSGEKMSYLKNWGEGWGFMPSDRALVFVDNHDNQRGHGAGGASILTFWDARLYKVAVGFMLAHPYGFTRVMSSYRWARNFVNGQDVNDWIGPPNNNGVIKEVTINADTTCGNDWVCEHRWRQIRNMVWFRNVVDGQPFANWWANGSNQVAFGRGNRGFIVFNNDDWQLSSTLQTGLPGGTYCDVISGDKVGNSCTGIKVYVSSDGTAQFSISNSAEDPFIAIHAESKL
Protocol: as §1

[6] = combined with insulin (+insulin)
[7] = material-only treatment (−insulin)

Row | SMILES | glucose transport promotion [1, 6] | glucose transport promotion [1, 7] | α-glucosidase activity inhibitory effect [2] | pancreatic lipase activity inhibitory effect [3] | fat accumulation inhibitory effect in adipocytes [4] | α-amylase activity inhibitory effect [5]
1 | CC(C)=CCC[C@](C)(O[C@@H]1O[C@H](CO)[C@@H](O)[C@H](O)[C@H]1O)[C@H]1CC[C@]2(C)[C@@H]1[C@H](O)C[C@@H]1[C@@]3(C)CC[C@H](O)C(C)(C)[C@@H]3[C@@H](O[C@@H]3O[C@H](CO)[C@@H](O)[C@H](O)[C@H]3O)C[C@]12C [GS #01, ginsenoside Rg1] | further increase by insulin treatment | statistically significant glucose transport promotion | – | – | – | –
2 | CC(C)=CCC[C@](C)(O)[C@H]1CC[C@]2(C)[C@@H]1[C@H](O)C[C@@H]1[C@@]3(C)CC[C@H](O)C(C)(C)[C@@H]3[C@@H](O[C@@H]3O[C@H](CO)[C@@H](O)[C@H](O)[C@H]3O[C@@H]3O[C@@H](C)[C@H](O)[C@@H](O)[C@H]3O)C[C@]12C [GS #02, ginsenoside Rg2] | further increase by insulin treatment | statistically significant glucose transport promotion | – | – | – | –
3 | CC(C)=CCC[C@](C)(O[C@@H]1O[C@H](CO)[C@@H](O)[C@H](O)[C@H]1O)[C@H]1CC[C@]2(C)[C@@H]1[C@H](O)C[C@@H]1[C@@]3(C)CC[C@H](O)C(C)(C)[C@@H]3[C@@H](O[C@@H]3O[C@H](CO)[C@@H](O)[C@H](O)[C@H]3O[C@@H]3O[C@@H](C)[C@H](O)[C@@H](O)[C@H]3O)C[C@]12C [GS #03, ginsenoside Re] | further increase by insulin treatment | statistically significant glucose transport promotion | – | – | – | –
4 | CC(C)=CCC[C@](C)(O[C@@H]1O[C@H](CO[C@@H]2O[C@H](CO)[C@@H](O)[C@H](O)[C@H]2O)[C@@H](O)[C@H](O)[C@H]1O)[C@H]1CC[C@]2(C)[C@@H]1[C@H](O)C[C@@H]1[C@@]3(C)CC[C@H](O[C@@H]4O[C@H](CO)[C@@H](O)[C@H](O)[C@H]4O[C@@H]4O[C@H](CO)[C@@H](O)[C@H](O)[C@H]4O)C(C)(C)[C@@H]3CC[C@]12C [GS #05, ginsenoside Rb1, reference compound] | – | – | no activity inhibitory effect | except for some of the previously known ginsenosides (GS #05, GS #06), all showed a significant inhibitory effect | except some (GS #05, GS #06) of seven types of ginsenosides (GS #01-GS #06, GS #10; 10 μM each) extracted from Ginseng seeds, all of them was observed to reduce the amount of fats in adipocytes | –
5 | CC(C)=CCC[C@](C)(O[C@@H]1O[C@H](CO[C@@H]2OC[C@H](O)[C@H](O)[C@H]2O)[C@@H](O)[C@H](O)[C@H]1O)[C@H]1CC[C@]2(C)[C@@H]1[C@H](O)C[C@@H]1[C@@]3(C)CC[C@H](O[C@@H]4O[C@H](CO)[C@@H](O)[C@H](O)[C@H]4O[C@@H]4O[C@H](CO)[C@@H](O)[C@H](O)[C@H]4O)C(C)(C)[C@@H]3CC[C@]12C [GS #06, ginsenoside Rb2, reference compound] | – | – | no activity inhibitory effect | except for some of the previously known ginsenosides (GS #05, GS #06), all showed a significant inhibitory effect | except some (GS #05, GS #06) of seven types of ginsenosides (GS #01-GS #06, GS #10; 10 μM each) extracted from Ginseng seeds, all of them was observed to reduce the amount of fats in adipocytes | all except GS #06 showed significant activity inhibitory effect
6 | CN(C)C(=N)N=C(N)N [metformin, Metformin] | the glucose transport is further increased as compared with the insulin-only treatment group | – | – | – | – | –
